Results as given in patent publication US7282590B2, “Drug conjugates” (The Research Foundation of State University of New York, priority 2004, dated 2007).

Legend:
[1] = Cleavage of the disulfide bond in the drug-linker conjugate (drug release with cysteine as a model of glutathione, monitored by HPLC); type: physicochemical; conditions: cysteine in buffer pH 7.0 / CH3CN, room temperature, after 2 hours
Procedure: In order to confirm that the designed drug-release mechanism works under physiological conditions, a control experiment was performed using an anticancer linker drug conjugate and cysteine as a model of glutathione. The results of the experiment below provide clear evidence that the drug is released according to the desired mechanism of the invention.
To a solution of the drug-linker conjugate, 2′-(5-fluoro-2-methyldisulfanylphenyl)acetyl-3′-dephenyl-3′-(2-methylpropyl)-10-propanoyldocetaxel, (4.8 mg, 0.0045 mmol) in CH3CN (1.1 mL) was added cysteine (2.20 mg, 0.018 mmol) in buffer (pH 7.0, 0.56 mL) solution. The mixture was stirred at room temperature. The progress of the disulfide cleavage and drug release process was monitored by HPLC [Conditions: C-18 column. Flow rate: H2O, 0.6 mL/min; CH3CN, 0.4 mL/min., ambient temperature] periodically. The formations of thiolactone (5-fluoro-3H-benzo[b]thiophen-2-one) (retention time=9.05 min) and taxoid (3′-dephenyl-3′-(2-methylpropyl)-10-propanoyldocetaxel) (retention time=14.01 min) as well as the disappearance of the drug-linker conjugate (retention time=18.20 min) was clearly observed.

disappearance of the drug-linker conjugate (disulfide cleavage and drug release: release of the taxoid, formation of the thiolactone) [1]	melting point [°C]	Compound
completely disappeared	–	2′-(5-fluoro-2-methyldisulfanylphenyl)acetyl-3′-dephenyl-3′-(2-methylpropyl)-10-propanoyldocetaxel
–	122 to 125	CC(C)(CC(=O)O)c1ccccc1SSc1ccccn1 [Example 7, 3-Methyl-3-[2-(pyridine-2-yldisulfanyl)phenyl]butanoic acid]
